Data from patent US8349850B2, “Heterocyclic compounds and uses thereof in the treatment of sexual disorders” (ATIR Holding S.A., priority 2006, dated 2013).

Legend:
[1] = biological target: T1, D4.4 receptor (Homo sapiens, UniProt P21917); experiment: Competitive binding to D4.4 dopamine receptor ([3H]-YM-09151-2 radioligand); settings: 5 mcM compound; human recombinant D4.4 in CHO cells; na = no activity
T1 construct: expressed in transfected cells; host or cells: CHO cells
T1 sequence (P21917 1-419): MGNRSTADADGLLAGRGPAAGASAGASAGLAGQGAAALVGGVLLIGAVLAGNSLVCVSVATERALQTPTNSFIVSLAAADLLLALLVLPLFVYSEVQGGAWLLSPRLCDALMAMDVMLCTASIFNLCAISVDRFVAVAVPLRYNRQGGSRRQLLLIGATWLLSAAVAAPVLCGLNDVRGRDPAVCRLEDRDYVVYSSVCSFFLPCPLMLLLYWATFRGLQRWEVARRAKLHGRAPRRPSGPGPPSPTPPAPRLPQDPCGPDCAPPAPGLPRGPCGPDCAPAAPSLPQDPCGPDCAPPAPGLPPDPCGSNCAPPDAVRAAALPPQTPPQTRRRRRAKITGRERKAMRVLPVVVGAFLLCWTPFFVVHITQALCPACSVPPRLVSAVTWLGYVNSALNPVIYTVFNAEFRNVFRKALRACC
Method: (§1) Compounds were assayed for competitive binding to D2 SHORT and D4.4 type dopamine receptors. Both receptor types are expressed as human recombinant proteins in CHO cells, as described, for example, in Jarvis et al. (1973); Van Tol et al. (1991) and Van Tol et al. (1992).
(§2) Determination of binding to D4.4 receptor was performed using [^3H]-YM-09151-2 (70-87 Ci/mmol, 0.3 nM), as a radioligand, in with the presence of various concentrations of the tested compound. Reactions were carried out in 50 mM TRIS-HCl (pH 7.4) containing 5 mM MgCl2, 5 mM EDTA, 5 mM KCl and 1.5 mM CaCl2, for 60 minutes at 22° C. The reaction was terminated by rapid vacuum filtration onto glass fiber filters. Radioactivity trapped onto the filters was determined (counted) and compared to control values in order to accurately evaluate any interaction of the tested compound(s) with the cloned dopamine D4.4 binding site.

[2] = biological target: T2, Human recombinant dopamine D4.4 receptors expressed in CHO-K1 cells (Homo sapiens, UniProt P21917); experiment: GTPgammaS Cellular Assay (agonist response); type: biochemical; settings: relative to the 1 μM dopamine response; tested at 5, 1, 0.1, 0.01 μM (concentration of tabulated value not given); na = no activity; read-out: D4.4(h) GTPgammaS^35 Cellular Assay, Agonist Response, %
T2 construct: expressed in transfected cells; host or cells: CHO-K1 cells (membranes)
T2 sequence (P21917 1-419): T1 sequence (P21917 1-419)
Method: Human recombinant dopamine D4.4 receptors expressed in CHO-K1 cells were used. The tested compound was pre-incubated with 0.1 mg/ml membranes and 10 μM GDP for 20 minutes at 25° C. in modified HEPES buffer (pH 7.4). SPA beads were then added and the mixture was maintained for additional 60 minutes at 30° C. The reaction was initiated by the addition of 0.3 nM [^35S]GTPγS, and the obtained reaction mixture were incubated for 30 minutes. Test compound-induced increase of [^35S]GTPγS binding by 50 percent or more (≧50%) relative to the 1 μM dopamine response indicated dopamine D4.4 agonist activity. Test compound-induced inhibition of 1 μM dopamine-induced increase of [^35S]GTPγS binding response by 50 percent or more (≧50%) indicated receptor antagonist activity. Compounds were tested at concentrations of 5, 1, 0.1, 0.01 μM.

[3] = tested on: D2 SHORT and D4.4 type dopamine receptors; experiment: D4/D2 binding ratio from competitive binding to D4.4 and D2 short receptors; design: species or system human; settings: ratio of concentrations required to inhibit 50% of radioligand binding for each receptor
Method: as §1
Determination of binding to D2 short receptor was performed using [^3H]-spiperone, a D2 receptor ligand (Gundlach et al., 1984), as a radioligand (20-60 Ci/mmol, 0.2 nM) in the presence of various concentrations of the tested compound. Reactions were carried out in 50 mM TRIS-HCl (pH 7.4) containing 120 mM NaCl, 5 mM KCl, 5 mM MgCl2 and 1 mM EDTA, for 60 minutes at 25° C. The reaction was terminated by rapid vacuum filtration onto glass fiber filters. Radioactivity trapped onto the filters was determined (counted) and compared to control values in order to accurately evaluate any interaction of the test compound(s) with the cloned dopamine D2 short binding site.
as §2
D4/D2 binding ratios were determined based on the ratio of the concentration of each tested compound required to inhibit 50% of the radioligand binding for each receptor.

[4] = biological target: T3, PDE5 partially purified from human platelets (Homo sapiens, UniProt O76074); experiment: Phosphodiesterase Type 5 (PDE5) Inhibition; type: biochemical; settings: for IC50: read-out: PDE5 IC50, 10^−6 M; for exhibit both PDE5 inhibition and D4 agonist activity (dual activity): referring to Table 2 (PDE5 and D4 assays)
T3 construct: PDE5 partially purified from human platelets was used; from tissue; host or cells: human platelets
Method: Phosphodiesterase type 5 (PDE5) catalyzes the conversion of cAMP or cGMP to their respective monophosphate forms. PDE5 has a high Km for cAMP and a low Km for cGMP, is insensitive to Ca^2+/calmodulin or cGMP regulation, and is relatively sensitive to inhibitors such as dipyridamol and zaprinast.
PDE5 partially purified from human platelets was used. The tested compound (at a concentration of 0.1, 1, 20 or 50 μM) and/or vehicle was incubated with 3.5 μg enzyme and 1 μM cGMP containing 0.01 μM [^3H]cGMP in Tris buffer pH 7.5 for 20 minutes at 30° C. Since enzyme activity may change from lot to lot, the concentration used was adjusted if required.
The reaction was terminated by boiling the reaction mixture for 2 minutes. The obtained GMP was then converted to guanosine by addition of 10 mg/ml snake venom nucleotidase and further incubation at 30° C. for 10 minutes. Unhydrolyzed cGMP was bound to AG1-X2 resin, and remaining [^3H]Guanosine in the aqueous phase was quantitated by scintillation counting.

[5] = 'active' = observed activity not quantitated

inhibition at 5 µM [1] [%] | Emax [2] [%] | D4/D2 Selectivity [3] | IC50 [4, 5] [µM] | inhibition at 50 µM ([4]; 50 mcM compound, 1 μM cGMP) [%] | PDE5 % inhibition at 50 mcM ([4]; 50 mcM compound, 1 μM cGMP) | PDE5 IC50, 10^−6 M [4, 5] | SMILES | exhibit both PDE5 inhibition and D4 agonist activity (dual activity) [4]
59 | 62 | >100 |  |  |  |  | O=c1[nH]c(CN2CCN(c3ccccc3F)CC2)nc2ccccc12 [Compound 104, 2-{[4-(2-fluorophenyl)piperazin-1-yl]methyl}quinazolin-4(3H)-one] | 
88 | 44 | >70 |  |  |  |  | COc1ccccc1N1CCN(Cc2nc3ccccc3c(=O)[nH]2)CC1 [Compound 107, 2-{[4-(2-methoxyphenyl)piperazin-1-yl]methyl}quinazolin-4(3H)-one] | 
93 | 49 | >100 |  |  |  |  | CCOc1ccccc1N1CCN(Cc2nc3ccccc3c(=O)[nH]2)CC1 [Compound 108, 2-{[4-(2-ethoxyphenyl)piperazin-1-yl]methyl}quinazolin-4(3H)-one] | 
57 | 54 | >100 |  |  |  |  | O=c1[nH]c(CN2CCN(c3ccccc3Cl)CC2)nc2ccccc12 [Compound 109, 2-{[4-(2-chlorophenyl)piperazin-1-yl]methyl}quinazolin-4(3H)-one] | 
52 | 69 | >500 |  |  |  |  | N#Cc1ccccc1N1CCN(Cc2nc3ccccc3c(=O)[nH]2)CC1 [Compound 110, 2-{4-[(4-oxo-3,4-dihydroquinazolin-2-yl)methyl]piperazin-1-yl}benzonitrile] | 
91 | 42 | ~50 | 20 |  |  |  | O=c1[nH]c(CN2CCN(c3cccc(O)c3)CC2)nc2ccccc12 [Compound 113, 2-{[4-(3-hydroxyphenyl)piperazin-1-yl]methyl}quinazolin-4(3H)-one] | both PDE5 inhibition and D4 agonist activity
70 |  |  | 2 | 62 |  |  | O=c1[nH]c(CN2CCN(c3ncccn3)CC2)nc2cc(Cl)ccc12 [Compound B-72, 7-chloro-2-((4-(pyrimidin-2-yl)piperazin-1-yl)methyl)quinazolin-4(3H)-one] | both PDE5 inhibition and D4 agonist activity
12 |  |  |  |  | Problems with solubility | Problems with solubility | O=c1[nH]c(CN2CCC=C(c3ccccn3)C2)nc2ccccc12 [Compound B-82, 2-((5,6-dihydro-3-(pyridin-2-yl)pyridin-1(2H)-yl)methyl)quinazolin-4(3H)-one] | 

SMILES | inhibition at 5 µM [1] [%] | Emax [2] [%] | D4/D2 Selectivity [3] | IC50 [4, 5] [µM] | inhibition at 50 µM ([4]; 50 mcM compound, 1 μM cGMP) [%] | PDE5 % inhibition at 50 mcM ([4]; 50 mcM compound, 1 μM cGMP) | PDE5 IC50, 10^−6 M [4, 5] | exhibit both PDE5 inhibition and D4 agonist activity (dual activity) [4]
O=c1[nH]c(CN2CC=C(c3ccccc3)CC2)nc2ccccc12 [Compound 124, 2-[(4-phenyl-3,6-dihydropyridin-1(2H)-yl)methyl]quinazolin-4(3H)-one] | 73 | 57 | ~85 |  |  |  |  | 
O=c1cc(CN2CC=C(c3ccccc3)CC2)oc2ccccc12 [Compound 201, 2-[(4-phenyl-3,6-dihydropyridin-1(2H)-yl)methyl]-4H-chromen-4-one] | 72 | 75 | ~10 |  |  |  |  | 
O=c1cc(CN2CC=C(c3ccccc3)CC2)nc2ccccn12 [Compound 301, 2-[(4-phenyl-3,6-dihydropyridin-1(2H)-yl)methyl]-4H-pyrido[1,2-a]pyrimidin-4-one] | 59 | 69 | ~10 |  |  |  |  | 
